From patent US5338874A, “Cis oxalato (trans 1-1,2-cyclohexanediamine) PT(II) having optically high purity” (Tanaka Kikinzoku Kogyo K.K., priority 1993, dated 1994) come the findings set out here.

The series has as its system L1210. Description: Tumor resistance against L1210 (i.p. transplanted, CDF1 mice), T/C. On the set-up: key to Toxic mark (T: large weight loss): P: Effective (Over 125%); Toxic (Large Weight Loss). Format: in vivo. As to conditions: for Cured mice out of six / Toxic mark (T: large weight loss): i.p. on days 1, 5 and 9. Here is the method:
The test was conducted by prescribing L1210 in a peritoneal cavity of six CDF1 mice/one group (the number of transplanted cells is […] per mouse and prescribing the medicine in the poritoncal cavity on a first day, a fifth day and a ninth day.

Consider `N[C@@H]1CCCC[C@H]1N.O=C([O-])C(=O)[O-].[Pt+2]` (relative stereo) [Comp. Ex., cis-oxalate(trans-1-1,2-cyclohexanediamine) Pt(II), reference compound], for which the “Cured mice out of six” value (6.25 mg/kg) is listed as 1/6 and the “Cured mice out of six” value (12.5 mg/kg) is listed as 4/6. The “Toxic mark (T: large weight loss)” value (25 mg/kg) is “T”. In addition, where the note is “25 mg/kg, i.p. on days 1, 5 and 9, six CDF1 mice/group”, the “Tumor Resistance T/C (%)” value came out at 81%.
As for `N[C@@H]1CCCC[C@H]1N.O=C([O-])C(=O)[O-].[Pt+2]` (relative stereo) [Example 1, cis-oxalato (trans-1-1,2-cyclohexanediamine) Pt(II)], the “Cured mice out of six” value (6.25 mg/kg) is 3/6; the “Cured mice out of six” value (6.25 mg/kg, listed as Example 2) is reported as 3/6; the “Cured mice out of six” value (6.25 mg/kg, listed as Example 3) is listed as 3/6; the “Cured mice out of six” value (12.5 mg/kg) is recorded as 2/6; the “Cured mice out of six” value (12.5 mg/kg, listed as Example 2) is 2/6; the “Cured mice out of six” value (12.5 mg/kg, listed as Example 3) was 2/6. Moreover, the “Toxic mark (T: large weight loss)” value (25 mg/kg) is given as “T”. For the same compound, where the note is “high optical purity compound”, the “Activity against tumor leukemia L1210 (in words)” value is listed as “active against a tumor "leukomia L1210"”.
